According to PubChem BioAssay AID1963449 (Molecular Pharmacology Branch, DTP, NCI, 2024):
pIC50: −log10 of the molar value. “And” between values parts separate entries of the source, which are not always exact repeats. Equal entries are not always repeated.

System: 596521-263-R-J1-PDC complex spheroid growth
Assay: Anticancer human tumor 596521-263-R-J1-PDC patient-derived soft tissue sarcoma cell line growth inhibition [Asc]
Details: for viability, T/C: stronger effect = lower value
Outline: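 Spheroid model: tumor line + HUVEC + hMSC. Single agents and combinations; top conc. at/near clinical Cmax (10 microM if undetermined), half-log dilutions. DMSO stocks at 800-fold test concentration.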
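Further: spheroids exposed to compounds for 7 days.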

**Q.** With Cc1nc(N2CCC3(CC2)COC(C)C3N)c(CO)nc1Sc1ccnc(N)c1Cl (centres undefined) as the molecule, how does the viability, T/C (compound 0.00949 µM) read?
**A.** 92.9% and 104% and 105%

**Q.** And the viability, T/C (compound 0.03 µM)?
**A.** 105% and 93.2% and 112%

**Q.** What about the viability, T/C (compound 0.0949 µM) of the same molecule?
**A.** 95.7% and 91.3% and 95.2%

**Q.** What about the viability, T/C (compound 0.3 µM) of the same molecule?
**A.** 96.7% and 100% and 87%

**Q.** And the viability, T/C (compound 0.949 µM)?
**A.** 88.2% and 85.2% and 73.8%

**Q.** And the viability, T/C (compound 3 µM)?
**A.** 64.9% and 62.4% and 62.7%

**Q.** What about the pIC50 (curve of compound) of the same molecule?
**A.** < 5.52

**Q.** What does the source list for C#Cc1c(F)ccc2cc(O)cc(-c3ncc4c(N5CC6CCC(C5)N6)nc(OCC56CCCN5CC(F)C6)nc4c3F)c12 (centres undefined) + Cc1c(S(C)(=O)=O)c(-c2cc(F)cc(N3CCN(c4ccc(NS(=O)(=O)c5ccc(NC(CCN6CCC(C(=O)OCCCP(=O)(O)O)CC6)CSc6ccccc6)c(S(=O)(=O)C(F)(F)F)c5)cc4)CC3)c2)c(-c2ccc(Cl)cc2)n1C(C)C?
**A.** pIC50 (curve of first compound, second compound 0.0316 µM): < 5.00; pIC50 (curve of first compound, second compound 0.1 µM): < 5.00; pIC50 (curve of first compound, second compound 0.316 µM): < 5.00; pIC50 (curve of first compound, second compound 1 µM): < 5.00; pIC50 (curve of first compound, second compound 3.16 µM): < 5.00; pIC50 (curve of first compound, second compound 10 µM): 5.77; viability, T/C (second compound 0.0316 µM, first compound 0.0316 µM): 84.7%; viability, T/C (second compound 0.0316 µM, first compound 0.1 µM): 89.1%; viability, T/C (second compound 0.0316 µM, first compound 0.316 µM): 91%; viability, T/C (second compound 0.0316 µM, first compound 1 µM): 98.1%; viability, T/C (second compound 0.0316 µM, first compound 3.16 µM): 111%; viability, T/C (second compound 0.0316 µM, first compound 10 µM): 85.7%; viability, T/C (second compound 0.1 µM, first compound 0.0316 µM): 85.9%; viability, T/C (second compound 0.1 µM, first compound 0.1 µM): 107%; viability, T/C (second compound 0.1 µM, first compound 0.316 µM): 107%; viability, T/C (second compound 0.1 µM, first compound 1 µM): 95.5%; viability, T/C (second compound 0.1 µM, first compound 3.16 µM): 95.6%; viability, T/C (second compound 0.1 µM, first compound 10 µM): 87.8%; viability, T/C (second compound 0.316 µM, first compound 0.0316 µM): 82.2%; viability, T/C (second compound 0.316 µM, first compound 0.1 µM): 81.8%; viability, T/C (second compound 0.316 µM, first compound 0.316 µM): 76.9%; viability, T/C (second compound 0.316 µM, first compound 1 µM): 83.6%; viability, T/C (second compound 0.316 µM, first compound 3.16 µM): 100%; viability, T/C (second compound 0.316 µM, first compound 10 µM): 68.4%; viability, T/C (second compound 1 µM, first compound 0.0316 µM): 83.7%; viability, T/C (second compound 1 µM, first compound 0.1 µM): 84.2%; viability, T/C (second compound 1 µM, first compound 0.316 µM): 79.1%; viability, T/C (second compound 1 µM, first compound 1 µM): 83.4%; viability, T/C (second compound 1 µM, first compound 3.16 µM): 69.3%; viability, T/C (second compound 1 µM, first compound 10 µM): 60.5%; viability, T/C (second compound 3.16 µM, first compound 0.0316 µM): 59.4%; viability, T/C (second compound 3.16 µM, first compound 0.1 µM): 65.3%; viability, T/C (second compound 3.16 µM, first compound 0.316 µM): 61%; viability, T/C (second compound 3.16 µM, first compound 1 µM): 57.1%; viability, T/C (second compound 3.16 µM, first compound 3.16 µM): 60.4%; viability, T/C (second compound 3.16 µM, first compound 10 µM): 42.6%; viability, T/C (second compound 10 µM, first compound 0.0316 µM): 48.1%; viability, T/C (second compound 10 µM, first compound 0.1 µM): 47.8%; viability, T/C (second compound 10 µM, first compound 0.316 µM): 55.1%; viability, T/C (second compound 10 µM, first compound 1 µM): 60.7%; viability, T/C (second compound 10 µM, first compound 3.16 µM): 43.7%; viability, T/C (second compound 10 µM, first compound 10 µM): 37.2%
